We go through 46 compounds from US20120022070A1, “Heat Shock Protein 90 Inhibitors, Methods Of Preparing Same, And Methods For Their Use” (EMORY UNIVERSITY, priority 2008, published 2012).

The test system of assay [1] is Her2 protein in MCF-7 breast cancer cells. Nature of the assay: Cell-based Her2 degradation assay by Western Blot. To be noted: Homo sapiens. The source says: Addition of Hsp90 inhibitors to cancer cells induces the proteasomal degradation of a subset of proteins involved in signal transduction such as Raf1 kinase, Akt and certain transmembrane tyrosine kinases such as Her2. Thus, Her2 degradation in cells is a functional read-out of Hsp90 inhibition. Correlation between Hsp90 binding and Her2 degradation in cancer cells is indicative of a selective biological effect in these cells via Hsp90.
A Western blot-based assay was used to measure the cellular level of Her2 protein in MCF-7 breast cancer cell lysates collected after 24 hours of compound treatment. […] Then 2×10^5 cells were seeded in 24 well plates in 500 μl PRMI1640 medium and allowed to attach overnight. The compounds were dissolved in DMSO, added to the wells, and incubated for 24 hours. The cells were washed using ice-cold phosphate-buffered saline (PBS) and lysed in 1% NP40 lysis buffer (10 mM HEPES, pH 7.4, 150 mM NaCl, 1% Nonident P-40, 5 mM Pyrophosphate, 5 mM NaF, 2 mM Orthovanadate, 10 ug/ml Aprotinin, 10 ug/ml Leupeptin, 1 mM PMSF). After boiling with 6×SDS sample buffer, the cell lysates were separated by SDS-PAGE and transferred to nitrocellulose membrane. The membranes were blocked with 5% milk in tris-buffered saline buffer.

In assay [2] the test system is tumor specific Hsp90 (NCI-N417 cell lysate). Nature of the assay: Hsp90 binding FP competition assay. Set-up: species or system human. To be noted: Table 1, GM-cy3B 5 nM. The source says:
There are several assays that have been developed to identify novel Hsp90 inhibitors based on the interaction of small molecules with recombinant Hsp90 protein, either yeast or human. To measure a therapeutically significant state of Hsp90, an FP assay that uses human cancer cell lysates instead of recombinant protein (Du, Moulick et al. J. Biomol. Screen, 2007, 12, 915-24) was utilized. It probes the interaction of small molecules with tumor-specific Hsp90 and may therefore lead to inhibitors that are not only selective for cancer cells but also specific for a particular malignancy.
The dose-response effect of the compounds was tested in Hsp90 binding FP competition assays to obtain the IC50 of the compounds. The Hsp90 FP competition assay was performed in 384-well black plate using the small-cell lung carcinoma (SCLC) cell line NCI-N417 as a source of tumor specific Hsp90 and the Cy3B-labeled geldanamycin (GM-cy3B) as the FP ligand. The compound was dissolved in DMSO and added at several concentrations to the reaction buffer containing both GM-cy3B (5 nM) and NCI-N417 cell lysate (1 μg/well) in a final volume of 50 μL. Free GM-cy3B (5 nM) and bound GM-cy3B with NCI-N417 cell lysate (5 nM GM-cy3B and 1 μg/well of NCI-N417 cell lysate) were included as controls in each plate. After incubating at room temperature for 2 to 16 hours, the polarization values were measured and expressed as millipolarization (mP) units using Analyst HT plate reader (Molecular Devices). The competitive efficiency of the compounds were expressed as a percentage of control and calculated according to the following equation:
% of control=((mPc−mPf)/(mPb−mPf))×100
where mPc is the recorded mP from compound wells, mPf is the average recorded mP from GM-cy3B-only wells, and mPb is the average recorded mP from wells containing both GM-cy3B and NCI-N417 lysate. IC50 values were determined using a nonlinear regression analysis as implemented in Prism 4.0 (Graphpad Software).

Assay [3] has as its system SKBR3 breast cancer cells. Put plainly: Cancer cell growth inhibition assay (CellTiter-Blue). The format is cell-based. Conditions: Homo sapiens, SK-BR-3, Table 2, 96 hours. Here is the method: The effects of the compounds on cancer cell growth were determined using the CellTiter-Blue cell viability assay (Promega). CellTiter-Blue® Cell Viability is based on the ability of living cells to convert a redox dye (resazurin) into a fluorescent end product (resorufin).
The SKBR3 breast cancer cells were plated in 384-well microtiter plates (Costar) and allowed to attach overnight. After treatment with either compounds or vehicle (DMSO) for 96 hours, the cells were measured for their viability by CellTiter-Blue. Briefly, 10 μl of CelTiter-Blue were added to each well in 384-well plates and incubated at 37° C. for 4 hours. The fluorescence intensity (FI) was measured using the Analyst HT plate reader (Molecular Devices) with an excitation at 545 nm and emission at 595 nm. The IC50 was calculated as the compound concentration that inhibits cell viability by 50% compared with vehicle control wells. The IC50 values were determined as described above.

Setting [4] is: MCF7, Table 1, MCF-7 cells, 24 hours of compound treatment, read-out: Her2 degradation WB IC50.
The mark [5] stands for this setting: MCF7, 24 h, read-out: Her2 degradation WB IC50.

pIC50: −log10 of the molar value. Like-named read-outs stand apart in the source and are kept apart here.

Regarding `O=C1C=C(Nc2ccccc2)c2ncccc2C1=O` [Compound 1], in assay [1] (setting [4]), the pIC50 was ~5.60.
Still for that read-out and setting: with `O=C1C(=O)c2cccnc2C(NC2CC3CCC2C3)=C1Cl` (stereo not shown) [Compound 2] the figure was ~5.60; with `O=C1C(=O)c2cccnc2C(NCc2ccccc2)=C1Cl` [Compound 3], ~5.60.
For the compound `NC1=CC(=O)C(=O)c2cccnc21` [Compound 4], in assay [1] (setting [4]), the negative-log IC50 (pIC50) is < 4.70.
For `CN(C)C1=C(Cl)C(=O)C(=O)c2cccnc21` [Compound 5], the pIC50 in assay [1] (setting [4]) was < 4.70.
In the case of `CCN(CC)C1=C(Cl)C(=O)C(=O)c2cccnc21` [Compound 6], the pIC50 in assay [1] (setting [4]) is < 4.70.
On the same count and under the same terms, with `N#CCCCCNC1=CC(=O)C(=O)c2cccnc21` [Compound 10] the figure was ~5.00; with `CC(N)CCCNC1=CC(=O)C(=O)c2cccnc21` (stereo not shown) [Compound 11], 5.30 to 5.60.
Regarding `Cc1ccnc(NC2=CC(=O)C(=O)c3ccccc32)c1` [Compound 12], the pIC50 in assay [2] was > 6.41; in assay [1] (setting [4]) it was ~5.00.
`Cc1ccc(NC2=CC(=O)C(=O)c3ccccc32)c(C)c1` [Compound 13]: the pIC50 in assay [2] was 5.73; in assay [1] (setting [5]) it was > 5.30.
Take `O=C1C=C(Nc2ncccn2)c2ccccc2C1=O` [Compound 14]: the pIC50 was 6.35 in assay [2] and 5.00 to 6.00 in assay [1] (setting [4]).
`Cc1ccc(NC2=CC(=O)C(=O)c3ccccc32)cc1` [Compound 15]: the pIC50 is 6.02 in assay [2] and ~5.00 in assay [1] (setting [5]).
For the compound `O=C1C=C(Nc2cccnc2)c2ccccc2C1=O` [Compound 16], the pIC50 in assay [2] is 6.17; in assay [1] (setting [4]) it was ~5.00.
With `O=C1C=C(NCCc2ccccc2)c2ccccc2C1=O` [Compound 17], the negative logarithm of the IC50 (pIC50) was 5.40 in assay [2] and ~5.00 in assay [1] (setting [4]).
As for `CN(C1=CC(=O)C(=O)c2ccccc21)c1ccccc1` [Compound 18], the pIC50 in assay [2] was 6.41; in assay [1] (setting [5]), ~5.00.
Consider `O=C1C=C(Nc2ccc(Cl)cc2)c2ccccc2C1=O` [Compound 19], for which the pIC50 was 6.17 in assay [2] and > 5.00 in assay [1] (setting [5]).
`O=C1C=C(Nc2cccc(O)c2)c2ccccc2C1=O` [Compound 20]: the pIC50 in assay [2] is 6.22; in assay [1] (setting [4]) it was ~5.00.
The matching figures for `CCOc1ccc(NC2=CC(=O)C(=O)c3ccccc32)cc1` [Compound 21]: 6.00 and ~5.00.
Consider `O=C1C=C(NCCCCC2CCCCC2)c2ccccc2C1=O` [Compound 22], for which, in assay [2], the “FP Assay IC50” value was “inactive”. Further, in assay [1] (setting [4]), the pIC50 was < 4.52.
Take `O=C1C=C(N2CCOCC2)c2ccccc2C1=O` [Compound 23]: the pIC50 is 6.20 in assay [2] and ~5.00 in assay [1] (setting [5]).
For the compound `C=CCN(CC=C)C1=CC(=O)C(=O)c2ccccc21` [Compound 24], the results for the negative logarithm of the IC50 (pIC50) in assay [2] and in assay [1] (setting [4]) were 5.66 and ~5.00, respectively.
Take `Cc1ccc(C)c(NC2=CC(=O)C(=O)c3ccccc32)c1` [Compound 25]: the pIC50 in assay [2] was 5.80; in assay [1] (setting [5]), < 4.52.
In the case of `Cc1cccc(C)c1NC1=CC(=O)C(=O)c2ccccc21` [Compound 26], the pIC50 in assay [2] was 5.41; in assay [1] (setting [5]), < 5.00.
For the compound `O=C1C=C(Nc2cccc(Br)c2)c2ccccc2C1=O` [Compound 27], the pIC50 in assay [1] (setting [4]) is < 4.52.
As for `O=C1C=C(Nc2cccc(Cl)c2)c2ccccc2C1=O` [Compound 28], the pIC50 in assay [1] (setting [5]) is < 4.52.
For `Cc1ccc(NC2=CC(=O)C(=O)c3ccccc32)cc1C` [Compound 29], the results for the pIC50 in assay [2] and in assay [1] (setting [4]) were 5.97 and > 5.00, respectively.
Regarding `O=C1C=C(Nc2cccc(C(=O)O)c2)c2ccccc2C1=O` [Compound 30], the negative logarithm of the IC50 (pIC50) is 5.88 in assay [2] and < 4.52 in assay [1] (setting [4]).
As for `NC1=CC(=O)C(=O)c2ccccc21` [Compound 31], the pIC50 in assay [2] is 5.66; in assay [1] (setting [4]), 4.52 to 5.00.
Take `O=C1C=C(Nc2ccccc2)c2ccccc2C1=O` [Compound 32]: the pIC50 in assay [2] was 5.13; in assay [1] (setting [5]) it was > 4.52.
As for `O=C1C=C(Nc2cc(Cl)ccc2Cl)c2ccccc2C1=O` [Compound 33], the pIC50 in assay [2] is 5.51; in assay [1] (setting [4]), < 4.52.
In the case of `CCc1cccc(CC)c1NC1=CC(=O)C(=O)c2ccccc21` [Compound 34], the pIC50 in assay [2] is 5.45; in assay [1] (setting [5]), < 4.52.
With `Cc1cc(Br)ccc1NC1=CC(=O)C(=O)c2ccccc21` [Compound 35], the pIC50 in assay [2] was 5.52; in assay [1] (setting [4]), < 4.52.
`O=C1C=C(Nc2ccc(Br)cc2)c2ccccc2C1=O` [Compound 36]: the pIC50 in assay [2] is 5.85; in assay [1] (setting [5]), ~4.52.
The corresponding values for `O=C1C=C(Nc2ccc(Cl)cc2Cl)c2ccccc2C1=O` [Compound 37] are 5.33 and ~4.52.
Turning to `CCCCCCN(CCCCCC)C1=CC(=O)C(=O)c2ccccc21` [Compound 38], the negative logarithm of the IC50 (pIC50) in assay [2] was 5.59; in assay [1] (setting [4]) it was ~4.52.
Take `NC(=O)C(=O)CC(=O)c1ccccc1NC1=CC(=O)C(=O)c2ccccc21` [Compound 39]: the pIC50 in assay [2] was 5.38; in assay [1] (setting [4]), < 4.52.
As to `O=C1C=C(Nc2ccccc2C(=O)CC(=O)C(=O)Nc2ccc(Cl)c(Cl)c2)c2ccccc2C1=O` [Compound 40], the pIC50 in assay [2] was 4.98; in assay [1] (setting [4]) it was < 4.52.
As for `Cc1cccc(NC2=CC(=O)C(=O)c3ccccc32)c1` [Compound 41], the pIC50 is 5.97 in assay [2] and ≤ 5.00 in assay [1] (setting [5]).
As for `COc1cccc(NC2=CC(=O)C(=O)c3ccccc32)c1` [Compound 42], the pIC50 was 6.09 in assay [2] and ~5.00 in assay [1] (setting [4]).
Regarding `O=C1C=C(Nc2ccc(O)cc2)c2ccccc2C1=O` [Compound 43], the results for the pIC50 in assay [2] and in assay [1] (setting [5]) were > 6.41 and ~5.00, respectively.
Regarding `CC(C)c1cccc(C(C)C)c1NC1=CC(=O)C(=O)c2ccccc21` [Compound 44], the figures for the pIC50 in assay [2] and in assay [1] (setting [4]) were 5.76 and < 4.52, respectively.
The corresponding values for `CC(C)(C)OC(=O)N1CCN(C2=CC(=O)C(=O)c3ccccc32)CC1` [Compound 46] are 6.66 and 5.00 to 5.30.
The matching figures for `CN1CCN(C2=CC(=O)C(=O)c3ccccc32)CC1` [Compound 47]: 6.41 and 5.00 to 5.30.
In the case of `CCN(CC)C1=CC(=O)C(=O)c2ccccc21` [Compound 48], the values for the pIC50 in assay [2] and in assay [1] (setting [5]) were 6.16 and 5.00 to 5.30, respectively.
For the compound `COc1ccc(NC2=CC(=O)C(=O)c3ccccc32)c([N+](=O)[O-])c1` [Compound 52], the pIC50 is 6.64 in assay [2] and < 5.00 in assay [1] (setting [4]).
In the case of `Cc1ccc(NC2=CC(=O)C(=O)c3ccccc32)c(C(=O)O)c1` [Compound 68], the pIC50 in assay [1] (MCF7, Table 2, values without asterisk, MCF-7 cells, 24 hours, read-out: IC50, Her2 degradation WB) was < 4.52; in assay [3], < 4.70.
